Results from article PMC6901909, “Synergy Pattern of Short Cationic Antimicrobial Peptides Against Multidrug-Resistant Pseudomonas aeruginosa” (Frontiers in Microbiology, 2019).
≈ marks a conversion by molar mass, not a printed value. Peptide text beside a SMILES is read from it.

Experiments:
MDR P. aeruginosa PA253 = assay: microbe, parasite or virus in culture; format: cell-based, Pseudomonas aeruginosa
Procedure: (§1) We selected six different P. aeruginosa isolates that were described as MDR and had been isolated from clinical and municipal waste water ([Schwartz et al., 2006]). The minimal inhibitory concentration (MIC) was determined in a microdilution assay using Mueller-Hinton (MH) broth following a previously published protocol ([Wiegand et al., 2008]). Briefly, a twofold serial dilution of the antibiotics and peptides were prepared and added to a bacteria solution, resulting in 2–5 10^5 CFU/ml. The microtiter plates (polypropylene, Corning) were incubated for 18 h at 37°C and MICs were taken visually.

P. aeruginosa PA01-wt = assay: microbe, parasite or virus in culture; format: cell-based, Pseudomonas aeruginosa
Procedure: as §1

MDR P. aeruginosa PA 910 = assay: microbe, parasite or virus in culture; format: cell-based, Pseudomonas aeruginosa; conditions: MDR PA 910, 18 h
Procedure: as §1

MDR P. aeruginosa PA 919 = assay: microbe, parasite or virus in culture; format: cell-based, Pseudomonas aeruginosa
Procedure: as §1

[1] = test system: MDR isolate of P. aeruginosa (PA 910); conditions: checkerboard, MHb
Procedure: The checkerboard assay was used to determine the fractional inhibitory concentrations (FICs), following the protocol described in Koneman’s Color Atlas and Textbook of Diagnostic Microbiology ([Winn et al., 2006]). Briefly, combinations of peptides and antibiotics were prepared in 96-well plates (polypropylene, Corning) in a twofold dilution series. After the addition of a log-phase bacterial inoculum of 2–5 × 10^5 CFU/ml, plates were incubated at 37°C for 18 h. The FICs were determined by visual inspection and the effects of the combinations were determined using the FICs. The FIC was computed by adding two partial FIC values, FICA—the MIC of drug A, tested in combination with drug B divided by the MIC of drug A, tested alone and FICB—the MIC of drug B, tested in combination with drug A divided by the MIC of drug B, tested alone [FIC = FICA + FICB = (MICAB/MICA) + (MICBA/MICB), where MICA and MICB are the MICs of drugs A and B alone, respectively, and MICAB and MICBA are the MIC concentrations of the drugs in combination]. Here we use the European Committee for Antimicrobial Susceptibility Testing (EUCAST) definition, which is very similar to the definition provided by [Odds, 2003], except Odds define additive effects when FIC values are between 0.5 and 1 ([European Committee for Antimicrobial Susceptibility Testing [EUCAST] of the European Society of Clinical Microbiology and Infectious Diseases [ESCMID], 2000]; [Odds, 2003]). The combination of peptide (drug A) and antibiotics (drug B) was defined as synergistic if the FIC was ≤ 0.5, indifferent if the FIC was > 0.5 but ≤ 4.0 and antagonistic if the FIC was > 4.0.

[2] = short AMPs, microdilution, Mueller-Hinton broth, 18 h at 37°C, read visually, triplicate (n = 3)

| Compound | MIC against MDR isolates of PA, PA253 (MDR P. aeruginosa PA253; MDR PA253, 18 h) [µM] | MIC against PA01 wt (P. aeruginosa PA01-wt; -wt, 18 h) [µM] | MIC against PA910 in μM (peptides, Table 4) (MDR P. aeruginosa PA 910) [µM] | MIC against MDR isolates of PA, PA919 (MDR P. aeruginosa PA 919; MDR PA 919, 18 h) [µM] | also measured |
| --- | --- | --- | --- | --- | --- |
| CC[C@H](C)[C@H](NC(=O)[C@H](CCCNC(=N)N)NC(=O)[C@H](C)NC(=O)[C@H](CC(C)C)NC(=O)[C@@H](N)CCCNC(=N)N)C(=O)N[C@H](C(=O)N[C@H](C(=O)N[C@H](C(=O)N[C@@H](CCCNC(=N)N)C(=O)N[C@H](C(=O)N[C@@H](C)C(=O)N[C@@H](CCCNC(=N)N)C(N)=O)C(C)C)[C@@H](C)CC)C(C)C)C(C)C [Bac2a] (H-RLARIVVIRVAR-NH2) | 32 | 16 (≈ 22.7 µg/mL) | 32 (≈ 45.5 µg/mL) | 16 | – |
| N=C(N)NCCC[C@H](NC(=O)[C@H](CCCNC(=N)N)NC(=O)[C@@H](N)Cc1ccccc1)C(=O)N[C@@H](Cc1c[nH]c2ccccc12)C(=O)N[C@@H](Cc1c[nH]c2ccccc12)C(=O)N[C@@H](CCCCN)C(=O)N[C@@H](Cc1c[nH]c2ccccc12)C(=O)N[C@@H](Cc1ccccc1)C(=O)N[C@@H](CCCCN)C(N)=O [HHC-53] (H-FRRWWKWFK-NH2) | 8 | 8 (≈ 11.5 µg/mL) | 32 (≈ 46 µg/mL) | 16 | – |
| CC[C@H](C)[C@H](N)C(=O)N[C@@H](CC(C)C)C(=O)N1CCC[C@H]1C(=O)N[C@@H](Cc1c[nH]c2ccccc12)C(=O)N[C@@H](CCCCN)C(=O)N[C@@H](Cc1c[nH]c2ccccc12)C(=O)N1CCC[C@H]1C(=O)N[C@@H](Cc1c[nH]c2ccccc12)C(=O)N[C@@H](Cc1c[nH]c2ccccc12)C(=O)N1CCC[C@H]1C(=O)N[C@@H](Cc1c[nH]c2ccccc12)C(=O)N[C@@H](CCCNC(=N)N)C(=O)N[C@@H](CCCNC(=N)N)C(N)=O [Indolic., indolicidin] | – | – | – | – | MIC against MDR isolates of PA, PA253 (MDR P. aeruginosa PA253; [2]): 64 to 128 µM; MIC against PA01 wt (P. aeruginosa PA01-wt; [2]): 8 µM (≈ 15.3 µg/mL); MIC against MDR isolates of PA, PA919 (MDR P. aeruginosa PA 919; [2]): 32 µM; FIC mean (SD), combination with CET ([1]; confirmation study, peptide + ceftazidime, Indopt versions 1/8 MHb, mean of at least three measurements (n = 3), SD in brackets): 0.71 (0.21); FIC, combination with AMI ([1]; peptide + amikacin, for the Indopt versions 1/8 MHb, 2–5 × 10^5 CFU/ml, 37°C, 18 h, visual, determined once (n = 1)): 0.75; FIC, combination with CEF ([1]; peptide + cefepime, for the Indopt versions 1/8 MHb, 2–5 × 10^5 CFU/ml, 37°C, 18 h, visual, determined once (n = 1)): 2; FIC, combination with CET ([1]; peptide + ceftazidime, for the Indopt versions 1/8 MHb, 2–5 × 10^5 CFU/ml, 37°C, 18 h, visual, determined once (n = 1)): 0.51; FIC, combination with CIP ([1]; peptide + ciprofloxacin, for the Indopt versions 1/8 MHb, 2–5 × 10^5 CFU/ml, 37°C, 18 h, visual, determined once (n = 1)): 0.5; FIC, combination with ERY ([1]; peptide + erythromycin, for the Indopt versions 1/8 MHb, 2–5 × 10^5 CFU/ml, 37°C, 18 h, visual, determined once (n = 1)): 0.63; FIC, combination with GEN ([1]; peptide + gentamycin, for the Indopt versions 1/8 MHb, 2–5 × 10^5 CFU/ml, 37°C, 18 h, visual, determined once (n = 1)): 0.5; FIC, combination with IMI ([1]; peptide + imipenem, for the Indopt versions 1/8 MHb, 2–5 × 10^5 CFU/ml, 37°C, 18 h, visual, determined once (n = 1)): 0.63; FIC, combination with KAN ([1]; peptide + kanamycin, for the Indopt versions 1/8 MHb, 2–5 × 10^5 CFU/ml, 37°C, 18 h, visual, determined once (n = 1)): 0.75; FIC, combination with MER ([1]; peptide + meropenem, for the Indopt versions 1/8 MHb, 2–5 × 10^5 CFU/ml, 37°C, 18 h, visual, determined once (n = 1)): 0.63; FIC, combination with PIP ([1]; peptide + piperacillin, for the Indopt versions 1/8 MHb, 2–5 × 10^5 CFU/ml, 37°C, 18 h, visual, determined once (n = 1)): 0.56; FIC, combination with PMB ([1]; peptide + polymyxin B, for the Indopt versions 1/8 MHb, 2–5 × 10^5 CFU/ml, 37°C, 18 h, visual, determined once (n = 1)): 0.25; FIC, combination with TET ([1]; peptide + tetracycline, for the Indopt versions 1/8 MHb, 2–5 × 10^5 CFU/ml, 37°C, 18 h, visual, determined once (n = 1)): 1; FIC, combination with TOB ([1]; peptide + tobramycin, for the Indopt versions 1/8 MHb, 2–5 × 10^5 CFU/ml, 37°C, 18 h, visual, determined once (n = 1)): 0.5 |
| CC[C@H](C)[C@H](NC(=O)[C@@H](N)Cc1ccccc1)C(=O)N[C@@H](CCCCN)C(=O)N[C@@H](Cc1c[nH]c2ccccc12)C(=O)N[C@@H](CCCCN)C(=O)N[C@@H](CCCCN)C(=O)N[C@@H](CCCNC(=N)N)C(=O)N[C@@H](Cc1c[nH]c2ccccc12)C(=O)N[C@@H](Cc1c[nH]c2ccccc12)C(=O)N[C@@H](CCCCN)C(=O)N[C@@H](CCCCN)C(=O)N[C@@H](CCCNC(=N)N)C(=O)N[C@H](C(N)=O)[C@@H](C)O [Indopt 1] (H-FIKWKKRWWKKRT-NH2) | 16 | 4 (≈ 7.56 µg/mL) | 8 (≈ 15.1 µg/mL) | 32 | – |
| CC[C@H](C)[C@H](NC(=O)[C@@H](N)Cc1ccccc1)C(=O)N[C@@H](CCCCN)C(=O)N[C@@H](Cc1c[nH]c2ccccc12)C(=O)N[C@@H](CCCNC(=N)N)C(=O)N[C@@H](Cc1ccccc1)C(=O)N[C@@H](CCCNC(=N)N)C(=O)N[C@@H](CCCNC(=N)N)C(=O)N[C@@H](Cc1c[nH]c2ccccc12)C(=O)N[C@@H](CCCCN)C(=O)N[C@@H](CCCCN)C(=O)N[C@@H](CCCNC(=N)N)C(=O)N[C@H](C(N)=O)[C@@H](C)O [Indopt 2] (H-FIKWRFRRWKKRT-NH2) | 16 | 4 (≈ 7.63 µg/mL) | 8 (≈ 15.3 µg/mL) | 32 | – |
| CC[C@H](C)[C@H](NC(=O)[C@@H](N)Cc1ccccc1)C(=O)N[C@@H](CCCCN)C(=O)N[C@@H](Cc1c[nH]c2ccccc12)C(=O)N[C@@H](CCCNC(=N)N)C(=O)N[C@@H](CO)C(=O)N[C@@H](CCCNC(=N)N)C(=O)N[C@@H](Cc1c[nH]c2ccccc12)C(=O)N[C@@H](Cc1c[nH]c2ccccc12)C(=O)N[C@@H](CCCCN)C(=O)N[C@@H](CCCCN)C(=O)N[C@@H](CCCNC(=N)N)C(=O)N[C@H](C(N)=O)[C@@H](C)O [Indopt 3] (H-FIKWRSRWWKKRT-NH2) | 16 | 4 (≈ 7.51 µg/mL) | 8 (≈ 15 µg/mL) | 32 | – |
| CC[C@H](C)[C@H](NC(=O)[C@@H](N)Cc1ccccc1)C(=O)N[C@@H](CCCCN)C(=O)N[C@@H](Cc1c[nH]c2ccccc12)C(=O)N[C@@H](CCCNC(=N)N)C(=O)N[C@@H](Cc1ccccc1)C(=O)N[C@@H](CCCNC(=N)N)C(=O)N[C@@H](CCCNC(=N)N)C(=O)N[C@@H](Cc1c[nH]c2ccccc12)C(=O)N[C@@H](CCCCN)C(=O)N[C@@H](CCCCN)C(=O)N[C@@H](CCCNC(=N)N)C(=O)N[C@@H](CCCCN)C(N)=O [Indopt 4] (H-FIKWRFRRWKKRK-NH2) | 8 | 4 (≈ 7.74 µg/mL) | 4 to 8 | 16 to 32 | MIC against MDR isolates of PA, PA910 (MDR P. aeruginosa PA 910): 4 to 8 µM |
| CC[C@H](C)[C@H](NC(=O)[C@@H](N)Cc1ccccc1)C(=O)N[C@@H](CCCCN)C(=O)N[C@@H](Cc1c[nH]c2ccccc12)C(=O)N[C@@H](CCCCN)C(=O)N[C@@H](Cc1ccccc1)C(=O)N[C@@H](CCCNC(=N)N)C(=O)N1CCC[C@H]1C(=O)N[C@@H](Cc1c[nH]c2ccccc12)C(=O)N[C@@H](CCCCN)C(=O)N[C@@H](CCCCN)C(=O)N[C@@H](CCCNC(=N)N)C(=O)N[C@H](C(N)=O)[C@@H](C)O [Indopt 5] (H-FIKWKFRPWKKRT-NH2) | 16 | 4 (≈ 7.28 µg/mL) | 8 (≈ 14.6 µg/mL) | 16 to 32 | – |
| CC[C@H](C)[C@H](NC(=O)[C@@H](N)Cc1ccccc1)C(=O)N[C@@H](CCCCN)C(=O)N[C@@H](CCCNC(=N)N)C(=O)N[C@@H](CCCCN)C(=O)N[C@@H](CO)C(=O)N[C@@H](CCCNC(=N)N)C(=O)N[C@@H](Cc1c[nH]c2ccccc12)C(=O)N[C@@H](Cc1c[nH]c2ccccc12)C(=O)N[C@@H](CCCCN)C(=O)N[C@@H](Cc1c[nH]c2ccccc12)C(=O)N[C@@H](CCCNC(=N)N)C(=O)N[C@H](C(N)=O)[C@@H](C)O [Indopt 6] (H-FIKRKSRWWKWRT-NH2) | 8 to 16 | 4 (≈ 7.51 µg/mL) | 8 (≈ 15 µg/mL) | 32 | – |
